Data taken from paper PMC6487500 (Molecular imaging and biology : MIB : the official …, 2019).

Experiments:
BT474 cells = assay: Cell binding assay and specific binding; parameters: species or system human; settings: at 60 min
BT474 xenografts = assay: Tissue distribution in mice bearing BT474 xenografts; assay type: in vivo, mouse; settings: BT474 xenograft mice, n = 5
[1] = 100 ± 20 μCi i.v., after PET/CT at 1 h

SMILES: [68Ga+3].[Cl-].[Cl-].[Cl-] [[^68Ga]GaCl3]
- specific BT474 cell binding (BT474 cells): 18.8 ± 2.5%
- tissue distribution, contralateral muscle (BT474 xenografts; [1]): 1.2 ± 0.4 %ID/g
- tissue distribution, liver (BT474 xenografts; [1]): 4.3 ± 1.3 %ID/g
- tissue distribution, tumor uptake (BT474 xenografts; [1]): 2.2 ± 1.7 %ID/g
- tissue distribution, lungs (BT474 xenografts; 100 ± 20 μCi i.v., at 1 h): 4.2 ± 2.6 %ID/g
- T/M ratio, tissue distribution (BT474 xenografts; non-blocked, after PET/CT at 1 h): 1.7 ± 0.8
